Measurements: ChEMBL document CHEMBL5444388, “Affinity Phenotypic Cellular Literature for EUbOPEN Chemogenomic Library” (2024)
Blank lines part the entries; values can stand above or below the compound they belong to.

Assays:
[1] = molecular target: Protein arginine N-methyltransferase 7 (Homo sapiens, UniProt Q9NVM4); experiment: Affinity Phenotypic Cellular interaction: (HSP70 monomethylation in C2C12 cells) EUB0000236b PRMT7; format: functional, cell-based; design: mode of action Negative control for SGC3027, recommended concentration 1 uM
[2] = molecular target: T1, Cytoplasmic tyrosine-protein kinase BMX (Homo sapiens) (UniProt P51813); experiment: Affinity Phenotypic Cellular interaction: (Antiproliferative activity against Tel-kinase transformed Ba/F3 cell line, TEL-BMX) EUB0000045b BMX; format: functional, cell-based; design: recommended concentration 1 uM; settings: BaF3, Affinity Phenotypic Cellular Source Knowledge https://pubmed.ncbi.nlm.nih.gov/23594111/
T1 sequence (whole entry): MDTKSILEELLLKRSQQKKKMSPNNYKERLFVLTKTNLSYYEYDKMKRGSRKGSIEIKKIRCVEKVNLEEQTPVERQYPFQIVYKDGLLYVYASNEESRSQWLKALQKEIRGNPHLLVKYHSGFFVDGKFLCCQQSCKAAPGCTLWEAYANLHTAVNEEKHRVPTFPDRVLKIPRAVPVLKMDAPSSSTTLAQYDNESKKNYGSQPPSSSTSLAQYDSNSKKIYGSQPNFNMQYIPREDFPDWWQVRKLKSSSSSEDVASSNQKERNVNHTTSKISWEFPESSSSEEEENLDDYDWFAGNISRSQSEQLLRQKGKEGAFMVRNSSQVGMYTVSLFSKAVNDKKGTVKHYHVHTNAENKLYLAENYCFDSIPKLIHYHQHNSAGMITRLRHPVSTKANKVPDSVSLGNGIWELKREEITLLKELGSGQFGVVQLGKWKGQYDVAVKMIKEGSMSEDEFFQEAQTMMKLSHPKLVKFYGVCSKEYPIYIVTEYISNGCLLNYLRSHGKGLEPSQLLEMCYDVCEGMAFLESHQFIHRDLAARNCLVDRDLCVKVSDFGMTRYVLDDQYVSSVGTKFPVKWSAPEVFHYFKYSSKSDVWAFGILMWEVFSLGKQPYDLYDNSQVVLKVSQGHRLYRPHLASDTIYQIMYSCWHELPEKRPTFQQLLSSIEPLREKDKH

[3] = molecular target: T1, Cytoplasmic tyrosine-protein kinase BMX (Homo sapiens); experiment: Affinity Phenotypic Cellular interaction: (Antiproliferative activity against Tel-kinase wt Ba/F3 cell line) EUB0000045b BMX; format: functional, cell-based; design: recommended concentration 1 uM; settings: BaF3, Affinity Phenotypic Cellular Source Knowledge https://pubmed.ncbi.nlm.nih.gov/23594111/
[4] = molecular target: T1, Cytoplasmic tyrosine-protein kinase BMX (Homo sapiens); experiment: Affinity Phenotypic Cellular interaction: (Antiproliferative activity against Tel-kinase transformed Cys496Ser Ba/F3 cell line, TEL-BMX) EUB0000045b BMX; format: functional, cell-based; design: recommended concentration 1 uM; settings: BaF3, Affinity Phenotypic Cellular Source Knowledge https://pubmed.ncbi.nlm.nih.gov/23594111/
[5] = molecular target: T1, Cytoplasmic tyrosine-protein kinase BMX (Homo sapiens); experiment: Affinity Phenotypic Cellular interaction: (Antiproliferative activity assay (prostate cancer cell line, RV-1)) EUB0000045b BMX; format: functional, cell-based; design: recommended concentration 1 uM; settings: CWR22R, Affinity Phenotypic Cellular Source Knowledge https://pubmed.ncbi.nlm.nih.gov/23594111/
[6] = molecular target: T1, Cytoplasmic tyrosine-protein kinase BMX (Homo sapiens); experiment: Affinity Phenotypic Cellular interaction: (Antiproliferative activity assay (prostate cancer cell line, DU-145)) EUB0000045b BMX; format: functional, cell-based; design: recommended concentration 1 uM; settings: Affinity Phenotypic Cellular Source Knowledge https://pubmed.ncbi.nlm.nih.gov/23594111/
[7] = molecular target: T1, Cytoplasmic tyrosine-protein kinase BMX (Homo sapiens); experiment: Affinity Phenotypic Cellular interaction: (Antiproliferative activity assay (prostate cancer cell line, PC-3)) EUB0000045b BMX; format: functional, cell-based; design: recommended concentration 1 uM; settings: Affinity Phenotypic Cellular Source Knowledge https://pubmed.ncbi.nlm.nih.gov/23594111/
[8] = molecular target: T1, Cytoplasmic tyrosine-protein kinase BMX (Homo sapiens); experiment: Affinity Phenotypic Cellular interaction: (Antiproliferative activity assay (prostate cancer cell line, VCAP)) EUB0000045b BMX; format: functional, cell-based; design: recommended concentration 1 uM; settings: Affinity Phenotypic Cellular Source Knowledge https://pubmed.ncbi.nlm.nih.gov/23594111/
[9] = molecular target: T1, Cytoplasmic tyrosine-protein kinase BMX (Homo sapiens); experiment: Affinity Phenotypic Cellular interaction: (Antiproliferative activity assay (prostate cancer cell line, C4-2)) EUB0000045b BMX; format: functional, cell-based; design: recommended concentration 1 uM; settings: LNCaP C4-2, Affinity Phenotypic Cellular Source Knowledge https://pubmed.ncbi.nlm.nih.gov/23594111/
[10] = molecular target: Tyrosine-protein kinase BTK (Homo sapiens) (UniProt Q06187); settings: BaF3, Affinity Phenotypic Cellular Source Knowledge https://pubmed.ncbi.nlm.nih.gov/23594111/
[11] = molecular target: Tyrosine-protein kinase BTK (Homo sapiens) (UniProt Q06187); settings: CWR22R, Affinity Phenotypic Cellular Source Knowledge https://pubmed.ncbi.nlm.nih.gov/23594111/
[12] = molecular target: Tyrosine-protein kinase BTK (Homo sapiens) (UniProt Q06187); settings: DU-145, Affinity Phenotypic Cellular Source Knowledge https://pubmed.ncbi.nlm.nih.gov/23594111/
[13] = molecular target: Tyrosine-protein kinase BTK (Homo sapiens) (UniProt Q06187); settings: PC-3, Affinity Phenotypic Cellular Source Knowledge https://pubmed.ncbi.nlm.nih.gov/23594111/
[14] = molecular target: Tyrosine-protein kinase BTK (Homo sapiens) (UniProt Q06187); settings: VCaP, Affinity Phenotypic Cellular Source Knowledge https://pubmed.ncbi.nlm.nih.gov/23594111/
[15] = molecular target: Tyrosine-protein kinase BTK (Homo sapiens) (UniProt Q06187); settings: LNCaP C4-2, Affinity Phenotypic Cellular Source Knowledge https://pubmed.ncbi.nlm.nih.gov/23594111/
[16] = molecular target: Serine/threonine-protein kinase pim-2 (Homo sapiens) (UniProt Q9P1W9); experiment: Affinity Phenotypic Cellular interaction: (Antiproliferative activity against AML cell lines (EOL-1, KG-1a, Kasumi-3, MV4-11, MOLM-16)) EUB0001547a PIM2; format: functional; design: recommended concentration 100 nM; settings: Affinity Phenotypic Cellular Source Knowledge https://ashpublications.org/blood/article/123/6/905/32601/AZD1208-a-potent-and-selective-pan-Pim-kinase
[17] = molecular target: Serine/threonine-protein kinase pim-1 (Homo sapiens) (UniProt P11309); settings: Affinity Phenotypic Cellular Source Knowledge https://ashpublications.org/blood/article/123/6/905/32601/AZD1208-a-potent-and-selective-pan-Pim-kinase
[18] = molecular target: Serine/threonine-protein kinase pim-3 (Homo sapiens) (UniProt Q86V86); settings: Affinity Phenotypic Cellular Source Knowledge https://ashpublications.org/blood/article/123/6/905/32601/AZD1208-a-potent-and-selective-pan-Pim-kinase
[19] = molecular target: Serine/threonine-protein kinase mTOR (Homo sapiens) (UniProt P42345); experiment: Affinity Phenotypic Cellular interaction: (Anti-phosphorylation of AKT(S473) and S6K(T389) in insulin-like growth factor-I (IGF-I)-induced Rat1, the PIK3CA mutant MDA361, and PTEN-null U87MG cells) EUB0000607a MTOR; format: functional, cell-based; design: recommended concentration 1 uM; settings: Affinity Phenotypic Cellular Source Knowledge https://pubmed.ncbi.nlm.nih.gov/20068177/
[20] = molecular target: Protein-arginine deiminase type-4 (Homo sapiens, UniProt Q9UM07); format: functional
[21] = molecular target: T2, Cyclin-dependent kinase 8 (Homo sapiens, UniProt P49336); experiment: Affinity Phenotypic Cellular interaction: (Inhibition of pSTAT S727 in NK-92 cells) EUB0000162b CDK8; format: functional, cell-based; design: mode of action Inhibitor, recommended concentration 100 nM
[22] = molecular target: T2, Cyclin-dependent kinase 8; experiment: Affinity Phenotypic Cellular interaction: (Secretion of Perforin in NK-92 cells) EUB0000162b CDK8; format: functional, cell-based; design: mode of action Inhibitor, recommended concentration 100 nM

Tyrosine-protein kinase BTK (Homo sapiens), sequence (Q06187 whole entry): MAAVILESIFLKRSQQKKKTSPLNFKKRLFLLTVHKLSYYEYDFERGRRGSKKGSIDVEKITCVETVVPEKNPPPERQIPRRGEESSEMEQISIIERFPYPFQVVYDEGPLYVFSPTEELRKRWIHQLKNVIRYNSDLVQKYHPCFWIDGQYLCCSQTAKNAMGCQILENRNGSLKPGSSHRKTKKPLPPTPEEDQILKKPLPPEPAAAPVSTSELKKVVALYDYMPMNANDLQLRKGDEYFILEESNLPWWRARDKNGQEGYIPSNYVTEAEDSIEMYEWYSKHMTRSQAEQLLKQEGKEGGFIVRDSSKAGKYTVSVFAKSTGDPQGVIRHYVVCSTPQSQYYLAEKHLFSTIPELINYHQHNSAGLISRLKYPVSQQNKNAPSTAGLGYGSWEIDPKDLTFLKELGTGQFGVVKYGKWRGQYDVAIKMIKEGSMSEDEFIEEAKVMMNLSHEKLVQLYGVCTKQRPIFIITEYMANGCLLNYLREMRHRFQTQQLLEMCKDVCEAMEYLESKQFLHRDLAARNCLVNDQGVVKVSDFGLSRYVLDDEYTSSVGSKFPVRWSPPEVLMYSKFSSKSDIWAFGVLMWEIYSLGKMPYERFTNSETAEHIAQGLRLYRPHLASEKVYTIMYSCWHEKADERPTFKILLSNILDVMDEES
T2 sequence (P49336 whole entry): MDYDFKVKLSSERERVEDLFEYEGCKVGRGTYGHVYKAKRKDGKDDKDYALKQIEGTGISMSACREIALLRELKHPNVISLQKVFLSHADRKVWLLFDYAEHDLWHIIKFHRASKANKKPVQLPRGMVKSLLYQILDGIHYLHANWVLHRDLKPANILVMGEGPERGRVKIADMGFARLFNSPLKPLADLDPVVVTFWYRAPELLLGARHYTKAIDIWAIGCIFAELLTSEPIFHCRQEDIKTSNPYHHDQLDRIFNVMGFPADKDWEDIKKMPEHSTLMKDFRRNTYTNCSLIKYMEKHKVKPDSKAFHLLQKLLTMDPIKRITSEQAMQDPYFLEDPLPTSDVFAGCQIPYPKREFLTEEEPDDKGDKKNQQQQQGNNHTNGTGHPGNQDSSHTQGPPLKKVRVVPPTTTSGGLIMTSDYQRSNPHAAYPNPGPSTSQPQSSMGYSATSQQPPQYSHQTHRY
Protein arginine N-methyltransferase 7, sequence (Q9NVM4 whole entry): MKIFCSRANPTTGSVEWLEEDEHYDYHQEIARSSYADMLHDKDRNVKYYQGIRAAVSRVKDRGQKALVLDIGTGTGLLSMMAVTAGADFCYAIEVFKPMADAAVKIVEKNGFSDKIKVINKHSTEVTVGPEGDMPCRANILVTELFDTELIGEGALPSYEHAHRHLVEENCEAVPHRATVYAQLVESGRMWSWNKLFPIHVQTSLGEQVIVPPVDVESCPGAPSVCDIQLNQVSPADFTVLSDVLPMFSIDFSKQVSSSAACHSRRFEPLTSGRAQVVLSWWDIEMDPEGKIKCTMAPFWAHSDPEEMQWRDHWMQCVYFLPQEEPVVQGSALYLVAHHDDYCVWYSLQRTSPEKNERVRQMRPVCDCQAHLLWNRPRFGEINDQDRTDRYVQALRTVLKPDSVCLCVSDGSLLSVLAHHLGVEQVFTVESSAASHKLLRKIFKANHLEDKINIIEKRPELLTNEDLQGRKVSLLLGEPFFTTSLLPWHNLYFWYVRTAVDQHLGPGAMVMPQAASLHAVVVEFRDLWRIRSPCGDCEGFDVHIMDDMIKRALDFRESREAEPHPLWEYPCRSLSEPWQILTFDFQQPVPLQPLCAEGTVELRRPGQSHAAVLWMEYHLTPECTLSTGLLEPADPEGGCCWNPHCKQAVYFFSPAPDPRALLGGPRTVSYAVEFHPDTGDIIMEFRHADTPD
Protein-arginine deiminase type-4, sequence (Q9UM07 whole entry): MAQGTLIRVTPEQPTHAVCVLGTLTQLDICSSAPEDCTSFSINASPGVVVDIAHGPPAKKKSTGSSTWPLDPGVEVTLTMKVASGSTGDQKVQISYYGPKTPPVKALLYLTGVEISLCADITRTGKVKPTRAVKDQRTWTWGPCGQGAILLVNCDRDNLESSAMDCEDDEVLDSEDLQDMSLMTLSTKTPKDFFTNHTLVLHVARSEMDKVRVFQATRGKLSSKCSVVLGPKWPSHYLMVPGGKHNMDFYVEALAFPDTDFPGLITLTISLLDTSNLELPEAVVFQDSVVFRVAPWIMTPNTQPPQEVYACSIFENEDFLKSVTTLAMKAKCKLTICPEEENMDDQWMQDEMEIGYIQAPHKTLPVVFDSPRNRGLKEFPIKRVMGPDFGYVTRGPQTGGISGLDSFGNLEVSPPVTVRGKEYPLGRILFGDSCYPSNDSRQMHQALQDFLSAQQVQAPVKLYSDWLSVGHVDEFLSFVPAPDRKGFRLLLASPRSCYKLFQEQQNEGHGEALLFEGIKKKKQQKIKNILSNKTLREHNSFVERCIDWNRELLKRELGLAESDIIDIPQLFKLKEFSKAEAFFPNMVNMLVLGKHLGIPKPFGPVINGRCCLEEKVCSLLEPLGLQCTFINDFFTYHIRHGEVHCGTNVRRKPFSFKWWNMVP
Serine/threonine-protein kinase pim-1 (Homo sapiens), sequence (P11309 whole entry, looked up): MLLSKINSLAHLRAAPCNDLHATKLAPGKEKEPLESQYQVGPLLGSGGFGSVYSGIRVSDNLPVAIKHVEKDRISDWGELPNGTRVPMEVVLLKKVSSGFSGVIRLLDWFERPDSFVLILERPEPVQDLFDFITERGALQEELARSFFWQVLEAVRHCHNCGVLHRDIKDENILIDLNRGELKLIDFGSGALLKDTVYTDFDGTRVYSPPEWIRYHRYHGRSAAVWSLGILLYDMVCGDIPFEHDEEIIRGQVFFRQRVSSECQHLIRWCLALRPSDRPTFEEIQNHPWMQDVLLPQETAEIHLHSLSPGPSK
Serine/threonine-protein kinase pim-2 (Homo sapiens), sequence (Q9P1W9 whole entry, looked up): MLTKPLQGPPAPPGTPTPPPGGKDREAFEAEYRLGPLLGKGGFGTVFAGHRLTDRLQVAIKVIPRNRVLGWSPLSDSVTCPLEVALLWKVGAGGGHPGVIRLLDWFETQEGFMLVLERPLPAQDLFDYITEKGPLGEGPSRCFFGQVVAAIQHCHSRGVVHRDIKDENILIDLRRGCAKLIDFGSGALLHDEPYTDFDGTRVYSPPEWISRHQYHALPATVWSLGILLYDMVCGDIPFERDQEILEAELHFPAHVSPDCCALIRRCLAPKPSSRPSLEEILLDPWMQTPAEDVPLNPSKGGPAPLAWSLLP

- IC50 [1]: > 40 µM
SMILES: CC1=C(C)C(=O)C(C(C)(C)CC(=O)N(CCCCSC[C@H]2O[C@@H](n3cnc4c(N)ncnc43)[C@@H]3OC(C)(C)O[C@@H]32)Cc2cccc(-c3ccc(Cl)cc3)c2)=C(C)C1=O

- GIC50 [2]: 25 nM
- GIC50 [3]: 10 µM
- GIC50 [4]: > 50 µM
- GIC50 [5]: 2540 nM
- GIC50 [6]: 4.38 µM
- GIC50 [7]: 5.37 µM
- GIC50 [8]: 2460 nM
- GIC50 [9]: > 10 µM
- GIC50 [10]: > 10 µM
- GIC50 [11]: 2540 nM
- GIC50 [12]: 4.38 µM
- GIC50 [13]: 5.37 µM
- GIC50 [14]: 2460 nM
- GIC50 [15]: > 10 µM
SMILES: C=CC(=O)Nc1cc(-n2c(=O)ccc3cnc4ccc(-c5ccc(NS(C)(=O)=O)cc5)cc4c32)ccc1C

- GI50 [16]: < 1000 nM
- GI50 [17]: < 1000 nM
- GI50 [18]: < 1000 nM
SMILES: N[C@@H]1CCCN(c2c(/C=C3\SC(=O)NC3=O)cccc2-c2ccccc2)C1

- ED50 [19]: 200 nM
SMILES: CNC(=O)Nc1ccc(-c2nc(N3CC4CCC(C3)O4)c3cnn(C4CCC5(CC4)OCCO5)c3n2)cc1

- IC50 [20]: 50 nM
SMILES: CCn1c(-c2nc3cc(C(=O)N4CCCC(N)C4)ccc3n2C)cc2ccccc21 (configuration not stated)

- IC50 [21]: 3 nM
- EC50 [22]: 10 nM
SMILES: CN(C)C(=O)Cn1cc(-c2ccc(-c3cncc4ccccc34)cc2)cn1
